Reference: BindingDB's records for patent US20240287037 (Plexium, 2024)

Target: Protein cereblon (Homo sapiens, UniProt Q96SW2)
Test: Bioluminescence Resonance Energy Transfer (BRET)
Experimental: 2 uL of 10 uM CRBN tracer (diluted 1:5 in Tracer Dilution Buffer) was added to each well. Plates were centrifuged at 320 g for 1 min at room temperature. […] Plates were shaken for 2 minutes on a microplate shaker to mix compounds. Plates were centrifuged at 320 g for 1 min at room temperature, and subsequently incubated for 2 hours at 37 C.After incubation, plates were allowed to cool to room temperature for 15 minutes. […] Plates were read on a CLARIOstar microplate reader (BMG LabTech), measuring at 450 nm (donor emission) and 610 nm (acceptor emission).

Sequence of Protein cereblon (Q96SW2 whole entry): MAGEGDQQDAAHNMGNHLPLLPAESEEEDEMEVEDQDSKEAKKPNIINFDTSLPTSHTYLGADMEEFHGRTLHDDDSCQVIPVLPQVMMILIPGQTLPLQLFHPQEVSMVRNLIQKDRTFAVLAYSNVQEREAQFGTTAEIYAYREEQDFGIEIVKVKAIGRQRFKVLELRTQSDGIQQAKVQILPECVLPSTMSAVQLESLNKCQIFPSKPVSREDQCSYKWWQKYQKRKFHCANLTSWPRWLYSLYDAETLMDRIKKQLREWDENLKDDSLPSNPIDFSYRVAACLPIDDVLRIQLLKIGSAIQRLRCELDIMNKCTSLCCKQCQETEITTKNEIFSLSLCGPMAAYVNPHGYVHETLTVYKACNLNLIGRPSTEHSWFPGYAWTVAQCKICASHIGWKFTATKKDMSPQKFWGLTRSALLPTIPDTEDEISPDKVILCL

EC50: 28 nM
SMILES: N#CC1(C2CN([C@H]3CCCC[C@@H]3Oc3ccc4c(c3)CN(C3CCC(=O)NC3=O)C4=O)C2)CCC1 (stereo partly specified) [US20240287037, Example 23]
